Data from PubChem BioAssay (NCI).
“And” between values parts separate entries of the source, which are not always exact repeats. Equal entries are not always repeated.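 These data come from cells grown in 96-well plates and exposed to compound for 48 hours at five concentrations. GI50 marks 50% less growth. TGI is the concentration that stops growth completely.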

Tests used:
Assay in all cases: growth of human tumour cells (NCI), 48 h
786-0 renal = system: 786-0 renal
A498 renal = system: A498 renal
A549 NSCLC = system: A549 NSCLC
ACHN renal = system: ACHN renal
CCRF-CEM leukemia = system: CCRF-CEM leukemia
COLO 205 colon = system: COLO 205 colon
DLD-1 colon = system: DLD-1 colon
DMS 273 small cell lung = system: DMS 273 small cell lung
EKVX NSCLC = system: EKVX NSCLC
HCC-2998 colon = system: HCC-2998 colon
HCT-116 colon = system: HCT-116 colon
HCT-15 colon = system: HCT-15 colon
HL-60(TB) leukemia = system: HL-60(TB) leukemia
HOP-62 NSCLC = system: HOP-62 NSCLC
HOP-92 NSCLC = system: HOP-92 NSCLC
HT29 colon = system: HT29 colon
IGROV1 ovarian = system: IGROV1 ovarian
K-562 leukemia = system: K-562 leukemia
KM12 colon = system: KM12 colon
KM20L2 colon = system: KM20L2 colon
LOX IMVI melanoma = system: LOX IMVI melanoma
LXFL 529 NSCLC = system: LXFL 529 NSCLC
M14 melanoma = system: M14 melanoma
MALME-3M melanoma = system: MALME-3M melanoma
MOLT-4 leukemia = system: MOLT-4 leukemia
NCI-H23 lung = system: NCI-H23 lung
NCI-H460 lung = system: NCI-H460 lung
NCI-H522 lung = system: NCI-H522 lung
OVCAR-3 ovarian = system: OVCAR-3 ovarian
OVCAR-4 ovarian = system: OVCAR-4 ovarian
OVCAR-5 ovarian = system: OVCAR-5 ovarian
OVCAR-8 ovarian = system: OVCAR-8 ovarian
RPMI-8226 leukemia = system: RPMI-8226 leukemia
SF-268 CNS = system: SF-268 CNS
SF-295 CNS = system: SF-295 CNS
SF-539 CNS = system: SF-539 CNS
SK-MEL-2 melanoma = system: SK-MEL-2 melanoma
SK-MEL-28 melanoma = system: SK-MEL-28 melanoma
SK-MEL-5 melanoma = system: SK-MEL-5 melanoma
SK-OV-3 ovarian = system: SK-OV-3 ovarian
SN12C renal = system: SN12C renal
SNB-19 CNS = system: SNB-19 CNS
SNB-75 CNS = system: SNB-75 CNS
SNB-78 CNS = system: SNB-78 CNS
SW-620 colon = system: SW-620 colon
TK-10 renal = system: TK-10 renal
U251 CNS = system: U251 CNS
UACC-257 melanoma = system: UACC-257 melanoma
UACC-62 melanoma = system: UACC-62 melanoma
UO-31 renal = system: UO-31 renal

CC(C)CC(=O)[O-].CC(C)CC(=O)[O-].N.N.N.N.[Co+3].[O-][Cl+3]([O-])([O-])[O-]
GI50 (786-0 renal): > 100 µM
TGI (786-0 renal): > 100 µM
GI50 (A498 renal): > 100 µM
TGI (A498 renal): > 100 µM
GI50 (A549 NSCLC): > 100 µM
TGI (A549 NSCLC): > 100 µM
GI50 (ACHN renal): > 100 µM
TGI (ACHN renal): > 100 µM
GI50 (CCRF-CEM leukemia): > 100 µM
TGI (CCRF-CEM leukemia): > 100 µM
GI50 (COLO 205 colon): > 100 µM
TGI (COLO 205 colon): > 100 µM
GI50 (DLD-1 colon): > 100 µM
TGI (DLD-1 colon): > 100 µM
GI50 (DMS 273 small cell lung): > 100 µM
TGI (DMS 273 small cell lung): > 100 µM
GI50 (EKVX NSCLC): > 100 µM
TGI (EKVX NSCLC): > 100 µM
GI50 (HCC-2998 colon): > 100 µM
TGI (HCC-2998 colon): > 100 µM
GI50 (HCT-116 colon): > 100 µM
TGI (HCT-116 colon): > 100 µM
GI50 (HCT-15 colon): > 100 µM
TGI (HCT-15 colon): > 100 µM
GI50 (HL-60(TB) leukemia): > 100 µM
TGI (HL-60(TB) leukemia): > 100 µM
GI50 (HOP-62 NSCLC): > 100 µM
TGI (HOP-62 NSCLC): > 100 µM
GI50 (HOP-92 NSCLC): > 100 µM
TGI (HOP-92 NSCLC): > 100 µM
GI50 (HT29 colon): > 100 µM
TGI (HT29 colon): > 100 µM
GI50 (IGROV1 ovarian): > 100 µM
TGI (IGROV1 ovarian): > 100 µM
GI50 (K-562 leukemia): > 100 µM
TGI (K-562 leukemia): > 100 µM
GI50 (KM12 colon): > 100 µM
TGI (KM12 colon): > 100 µM
GI50 (KM20L2 colon): > 100 µM
TGI (KM20L2 colon): > 100 µM
GI50 (LOX IMVI melanoma): > 100 µM
TGI (LOX IMVI melanoma): > 100 µM
GI50 (LXFL 529 NSCLC): > 100 µM
TGI (LXFL 529 NSCLC): > 100 µM
GI50 (M14 melanoma): > 100 µM
TGI (M14 melanoma): > 100 µM
GI50 (MALME-3M melanoma): > 100 µM
TGI (MALME-3M melanoma): > 100 µM
GI50 (MOLT-4 leukemia): > 100 µM
TGI (MOLT-4 leukemia): > 100 µM
GI50 (NCI-H23 lung): > 100 µM
TGI (NCI-H23 lung): > 100 µM
GI50 (NCI-H460 lung): > 100 µM
TGI (NCI-H460 lung): > 100 µM
GI50 (NCI-H522 lung): 51 µM and 90 µM
TGI (NCI-H522 lung): > 100 µM
GI50 (OVCAR-3 ovarian): > 100 µM
TGI (OVCAR-3 ovarian): > 100 µM
GI50 (OVCAR-4 ovarian): > 100 µM
TGI (OVCAR-4 ovarian): > 100 µM
GI50 (OVCAR-5 ovarian): > 100 µM
TGI (OVCAR-5 ovarian): > 100 µM
GI50 (OVCAR-8 ovarian): > 100 µM
TGI (OVCAR-8 ovarian): > 100 µM
GI50 (RPMI-8226 leukemia): > 100 µM
TGI (RPMI-8226 leukemia): > 100 µM
GI50 (SF-268 CNS): > 100 µM
TGI (SF-268 CNS): > 100 µM
GI50 (SF-295 CNS): > 100 µM
TGI (SF-295 CNS): > 100 µM
GI50 (SF-539 CNS): > 100 µM
TGI (SF-539 CNS): > 100 µM
GI50 (SK-MEL-2 melanoma): > 100 µM
TGI (SK-MEL-2 melanoma): > 100 µM
GI50 (SK-MEL-28 melanoma): > 100 µM
TGI (SK-MEL-28 melanoma): > 100 µM
GI50 (SK-MEL-5 melanoma): > 100 µM
TGI (SK-MEL-5 melanoma): > 100 µM
GI50 (SK-OV-3 ovarian): > 100 µM
TGI (SK-OV-3 ovarian): > 100 µM
GI50 (SN12C renal): > 100 µM
TGI (SN12C renal): > 100 µM
GI50 (SNB-19 CNS): > 100 µM
TGI (SNB-19 CNS): > 100 µM
GI50 (SNB-75 CNS): > 100 µM
TGI (SNB-75 CNS): > 100 µM
GI50 (SNB-78 CNS): > 100 µM
TGI (SNB-78 CNS): > 100 µM
GI50 (SW-620 colon): > 100 µM
TGI (SW-620 colon): > 100 µM
GI50 (TK-10 renal): > 100 µM
TGI (TK-10 renal): > 100 µM
GI50 (U251 CNS): > 100 µM
TGI (U251 CNS): > 100 µM
GI50 (UACC-257 melanoma): > 100 µM
TGI (UACC-257 melanoma): > 100 µM
GI50 (UACC-62 melanoma): > 100 µM
TGI (UACC-62 melanoma): > 100 µM
GI50 (UO-31 renal): 84.7 µM and > 100 µM
TGI (UO-31 renal): > 100 µM
